From publication PMC8433833, “Heteroleptic Oxidovanadium(V) Complexes with Activity against Infective and Non-Infective Stages of Trypanosoma cruzi” (Molecules, 2021)
Like-named read-outs stand apart in the source and are kept apart here.

Legend:
[1] = tested on: T. cruzi trypomastigotes (CL Brener strain); assay: In vitro activity against cell-derived trypomastigotes of T. cruzi (alamar Blue); assay type: cell-based, Trypanosoma cruzi; conditions: for IC50: Trypanosoma cruzi, 24 h, read-out: IC50 Trypomastigotes T. cruzi ± SD
VERO cells [2] = tested on: VERO cells; design: method as in doi:10.1039/C9NJ02589H; conditions: ref [42], read-out: IC50 VERO ± SD; cited from earlier work
[3] = tested on: T. cruzi epimastigotes (CL Brener strain); assay: In vitro activity against epimastigotes of T. cruzi (alamar Blue); assay type: cell-based, Trypanosoma cruzi; conditions: for IC50: Trypanosoma cruzi, 24 h, read-out: IC50 Epimastigotes T. cruzi ± SD
[4] = tested on: Caenorhabditis elegans Bristol strain N2; assay: In vivo toxicity on C. elegans (motility, viability, development); conditions: C. elegans L4, 2 µM, positive control
Procedure: The wild-type Caenorhabditis elegans (C. elegans) Bristol strain N2 and Escherichia coli (E. coli) OP50 strain were obtained from the Caenorhabditis Genomics Center (Minneapolis, MN, USA). Worms were maintained under standard conditions at 20 °C on Nematode Growth Media (NGM) agar plates seeded with E. coli OP50 as a source of food as previously described. The method used to assess toxicity is based on worm motility according to previously described. Briefly, the locomotor activity recording system, WMicrotracker^TM ONE (PhylumTech, Santa Fe, Argentina) detects infrared microbeam interruptions. Synchronized L4 C. elegans worms were removed from culture plates and washed three times with M9 buffer (3 g KH2PO4; 6 g Na2HPO4; 5 g NaCl; 1 mL 1 M MgSO4 per liter) by centrifugation at 1000 g. Worms in M9 1% DMSO were plated in 96-well flat microtiter plates (Deltalab, Barcelona, Spain). Approximately 70 worms per well were seeded in 60 µL M9 buffer containing 1% DMSO and their basal movement was measured for 30 min to normalize the movement activity for each well at the beginning of the assay. Then, compound [V^VO(IN-2H)(L2-H)] dissolved in M9 buffer 1% DMSO was added to a final concentration range of 6.5–100 µM in a final volume of 100 µL per well. […] The motility using WMicrotracker^TM ONE was measured for 18 h. […]

calf thymus DNA (ctDNA) = assay: Competitive binding to {DNA-EB} adduct by fluorescence; conditions: ctDNA 1.5 μM, EB 0.75 μM, 10 mM Tris-HCl pH 7.4, DMSO ≤5% v/v
Procedure: Experiments for competitive binding to calf thymus DNA (ctDNA, SIGMA, Type I, No. D-1501, St. […] Millipore water was used for the preparation of solutions of the complexes for the studies and for buffer solution. Fluorescence measurements were performed as titration using a fixed concentration of ctDNA and EB while gradually increasing the concentration of the [V^VO(IN-2H)(L2-H)] complex, L2 and IN free ligands. ctDNA stock solutions were prepared by hydrating ctDNA in Tris-HCl buffer (1 mg mL^−1, ~2 mM nuc^−1). This solution was allowed to stand at 4 °C. The concentration of the stock solution was determined by UV spectrophotometry using the molar absorption coefficient ε (260 nm) = 6600 M^−1cm^−1nuc^−1 [76]. An EB 0.5 mM solution was prepared in Tris-HCl buffer. Due to the low solubility of the complexes in aqueous media, DMSO was used to prepare concentrated stock solutions, followed by appropriate dilution. […] Fluorescence spectra were recorded from 540 nm to 680 nm at an excitation wavelength of 510 nm on a Shimadzu RF 5301 spectrofluorimeter (Kyoto, Japan) and in a 10.0 × 10.0 mm^2 quartz cuvette. Samples with only compounds and ctDNA (without EB) were used as blanks and subtracted from the sample spectra. […] KSV were determined from the plot of F0/F versus [Q].

VERO cells [5] = assay: Cytotoxicity on VERO cells (MTT assay); assay type: cell-based, African green monkeys; conditions: Primates, 24 h, read-out: IC50 VERO ± SD
Procedure: VERO cells. VERO cells (ATCC CCL81, Manassas, VA, USA) were used as mammalian cell model for testing unspecific cytotoxicity. This cell lineage was isolated from kidney epithelial cells from African green monkeys and is widely used for phenotypic screening of drugs as it is regarded as a normal cell derived from epithelial tissue.
Cells were cultured in RPMI medium (Gibco, Grand Island, NY, USA) supplemented with 10% heat inactivated fetal bovine serum, penicillin (100 units/mL) and streptomycin (100 µg/mL) at 37 °C in a humidified 5% CO2 incubator. For maintenance, confluent cells were washed with PBS, incubated for 3 min with trypsin-EDTA (Gibco), diluted and re-plated.
The compounds were initially dissolved in DMSO (stock concentration). […]
For the cytotoxicity assay, 10,000 cells per well were seeded in a 96-well plate in RPMI medium and were incubated at 37 °C in a 5% CO2 atmosphere. […] Cell viability was assessed using MTT (3-(4, 5-dimethylthiazolyl-2)-2, 5-diphenyltetrazolium bromide) assay, where MTT is reduced by metabolically active cells to generate reducing equivalents such as NADH and NADPH, resulting in the formation of an intracellular purple formazan which can be solubilized by the addition of DMSO. […] Plates were kept for 15 min with agitation and absorbance was measured at 570 nm in a Thermo Scientific Varioskan® Flash Multimode instrument (Waltham, MA, USA). […]

Compound	IC50 ([1]; CL Brener strain, cell-derived) [µM]	IC50 (VERO cells [2]) [µM]	IC50 ([3]; CL Brener strain) [µM]	other results
Oc1c(I)cc(I)c2cccnc12 [L3]	1.1 ± 0.88	75.5 ± 16.3	2.17 ± 0.35	
CC1CS(=O)(=O)CCN1/N=C/c1ccc([N+](=O)[O-])o1 (centres unmarked) [Nifurtimox]	20.1 ± 2.86	998 ± 90.6	3.68 ± 0.71	
Oc1c(Cl)cc(Cl)c2cccnc12 [L1, 5,7-dichloro-8-hydroxyquinolne]	2.25 ± 0.95	66.5 ± 13.1	7.17 ± 1.07	
ivermectin				effect on worm motility [4]: reduced motility to zero
Oc1cccc2cccnc12 [L0]		10.1 ± 3.9		IC50 [1]: 0.47 ± 0.07 µM; IC50 [3]: 9.42 ± 2.23 µM
Oc1c(I)cc(Cl)c2cccnc12 [L2, 5-chloro-7-iodo-8-hydroxyquinoline]	0.4 ± 0.08	64.7 ± 9.1	2.76 ± 0.52	log (KSV), Stern–Volmer constant for competitive binding to {DNA-EB} adduct (calf thymus DNA (ctDNA)): 4.68
O=[N+]([O-])c1ccc(O)c2ncccc12 [L4]	1.01 ± 0.73	12.5 ± 4.5	2.58 ± 0.56	
O=C(N/N=C/c1c(O)ccc2ccccc12)c1ccncc1 [IN]	> 20		> 20	IC50 (VERO cells [5]): 22.6 ± 3.7 µM; activity on trypomastigotes (in words) [1]: negligible activity; log (KSV), Stern–Volmer constant for competitive binding to {DNA-EB} adduct (calf thymus DNA (ctDNA)): 4.29; activity on epimastigotes (in words) [3]: negligible activity
